From ChEMBL document CHEMBL3352242, “Structure-based design of substituted piperidines as a new class of highly efficacious oral direct Renin inhibitors” (ACS Med Chem Lett, 2014)

Tests used:
Rattus norvegicus [1] = test: Reduction in mean arterial pressure in human renin and human angiotensinogen double transgenic rat at 3 mg/kg, po; type: functional, Artery
Rattus norvegicus [2] = test: Reduction in mean arterial pressure in human renin and human angiotensinogen double transgenic rat at 10 mg/kg, po; type: functional, Artery
Rattus norvegicus [3] = test: Reduction in mean arterial pressure in human renin and human angiotensinogen double transgenic rat at 30 mg/kg, po; type: functional, Artery
Rattus norvegicus [4] = test: Reduction in mean arterial pressure in human renin and human angiotensinogen double transgenic rat at 100 mg/kg, po; type: functional, Artery
[5] = Oral bioavailability in Sprague-Dawley rat at 6 mg/kg; type: ADME, organism-based; conditions: in vivo
[6] = Clearance in Sprague-Dawley rat at 2 mg/kg, iv; type: ADME, organism-based; design: dose 2 mg/kg, route intravenous; conditions: in vivo
[7] = Volume of distribution at steady state in Sprague-Dawley rat at 2 mg/kg, iv; type: ADME, organism-based; design: dose 2 mg/kg, route intravenous; conditions: in vivo, read-out: Vdss
[8] = Half life in Sprague-Dawley rat at 2 mg/kg, iv; type: ADME, organism-based; design: dose 2 mg/kg, route intravenous; conditions: in vivo
Rattus norvegicus [9] = test: Dose normalized Cmax inSprague-Dawley rat at 6 mg/kg, po; type: ADME, organism-based, Sprague-Dawley; design: dose 6 mg/kg, route oral; conditions: in vivo
Rattus norvegicus [10] = test: Dose normalized AUC (infinity) in Sprague-Dawley rat at 6 mg/kg, po; type: ADME, organism-based; design: dose 6 mg/kg, route oral; conditions: in vivo
Rattus norvegicus [11] = test: Reduction in mean arterial pressure in human renin and human angiotensinogen double transgenic rat at 1 mg/kg, po; type: functional, Artery
[12] = Lipophilicity, logD of the compound at pH 6.8; type: physicochemical; conditions: buffer
Pepsin A = Pepsin A (Homo sapiens, UniProt P0DJD9); test: Inhibition of human recombinant pepsinogen A expressed in Escherichia coli using fluorescence-quenched Dabcyl-E-R-Nle-F-L-S-F-P-EDANS substrate by fluorimetric assay
Gastricsin = molecular target: T1, Gastricsin (Homo sapiens, UniProt P20142); test: Inhibition of human recombinant pepsinogen C expressed in Escherichia coli using fluorescence-quenched Dabcyl-E-R-Nle-F-L-S-F-P-EDANS substrate by fluorimetric assay
T1 sequence (P20142 whole entry): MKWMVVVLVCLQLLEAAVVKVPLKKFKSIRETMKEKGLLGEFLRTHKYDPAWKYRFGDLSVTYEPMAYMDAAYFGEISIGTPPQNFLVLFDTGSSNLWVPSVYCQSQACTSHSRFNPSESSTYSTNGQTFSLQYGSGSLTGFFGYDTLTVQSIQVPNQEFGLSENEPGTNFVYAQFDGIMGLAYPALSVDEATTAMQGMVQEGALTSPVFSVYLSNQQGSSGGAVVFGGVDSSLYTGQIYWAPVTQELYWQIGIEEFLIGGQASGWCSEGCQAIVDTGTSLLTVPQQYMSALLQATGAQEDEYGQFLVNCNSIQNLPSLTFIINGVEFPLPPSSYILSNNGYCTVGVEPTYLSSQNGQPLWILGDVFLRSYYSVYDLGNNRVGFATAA

Cathepsin D = Cathepsin D (Homo sapiens, UniProt P07339); test: Inhibition of human recombinant procathepsin D expressed in SF9 cells using fluorescence-quenched Ac-E-D(EDANS)-KPILFFRLG-K(Dabcyl)-E-Amid substrate by fluorimetric assay
Cathepsin E = molecular target: T2, Cathepsin E (Homo sapiens, UniProt P14091); test: Inhibition of human recombinant human procathepsin E expressed in Escherichia coli using fluorescence-quenched Ac-E-D(EDANS)-KPILFFRLG-K(Dabcyl)-E-Amid substrate by fluorimetric assay
T2 sequence (P14091 whole entry): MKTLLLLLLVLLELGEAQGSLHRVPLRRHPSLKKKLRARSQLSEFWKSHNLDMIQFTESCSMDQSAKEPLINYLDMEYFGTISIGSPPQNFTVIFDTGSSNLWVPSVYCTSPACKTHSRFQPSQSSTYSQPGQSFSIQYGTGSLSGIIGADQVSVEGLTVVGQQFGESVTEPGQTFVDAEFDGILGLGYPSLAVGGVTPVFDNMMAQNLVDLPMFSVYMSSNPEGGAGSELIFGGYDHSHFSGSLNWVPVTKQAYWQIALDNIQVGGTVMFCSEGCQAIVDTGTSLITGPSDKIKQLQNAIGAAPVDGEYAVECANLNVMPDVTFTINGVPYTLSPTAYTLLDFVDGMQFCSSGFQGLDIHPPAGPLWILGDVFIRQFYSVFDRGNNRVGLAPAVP

Beta-secretase 1 = Beta-secretase 1 (Homo sapiens, UniProt P56817); test: Inhibition of human recombinant BACE1 expressed in SF9 cells using fluorescence-quenched RE(EDANS)-EVNLDAEF-K(DABSYL)-R substrate by fluorimetric assay
Beta-secretase 2 = molecular target: T3, Beta-secretase 2 (Homo sapiens, UniProt Q9Y5Z0); test: Inhibition of human recombinant BACE2 expressed in SF9 cells using fluorescence-quenched RE(EDANS)-EVNLDAEF-K(DABSYL)-R substrate by fluorimetric assay
T3 sequence (Q9Y5Z0 whole entry): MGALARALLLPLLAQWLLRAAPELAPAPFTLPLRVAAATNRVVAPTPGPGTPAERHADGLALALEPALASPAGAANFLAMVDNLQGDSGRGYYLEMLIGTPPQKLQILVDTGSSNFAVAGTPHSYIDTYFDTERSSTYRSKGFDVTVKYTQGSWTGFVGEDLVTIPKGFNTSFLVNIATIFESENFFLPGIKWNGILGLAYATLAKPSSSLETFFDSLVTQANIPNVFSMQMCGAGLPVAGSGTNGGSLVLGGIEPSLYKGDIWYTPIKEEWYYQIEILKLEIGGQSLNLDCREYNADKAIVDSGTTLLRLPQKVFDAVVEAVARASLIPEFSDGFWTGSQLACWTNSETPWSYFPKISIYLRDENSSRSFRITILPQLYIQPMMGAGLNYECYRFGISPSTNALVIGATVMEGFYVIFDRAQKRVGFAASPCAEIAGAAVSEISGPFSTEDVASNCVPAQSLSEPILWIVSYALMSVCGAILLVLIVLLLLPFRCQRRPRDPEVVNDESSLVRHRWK

Cytochrome P450 3A4 = Cytochrome P450 3A4 (Homo sapiens, UniProt P08684); test: Inhibition of CYP3A4 (unknown origin); type: ADME
Cytochrome P450 2C9 = Cytochrome P450 2C9 (Homo sapiens, UniProt P11712); test: Inhibition of CYP2C9 (unknown origin); type: ADME
Cytochrome P450 2D6 = Cytochrome P450 2D6 (Homo sapiens, UniProt P10635); test: Inhibition of CYP2D6 (unknown origin); type: ADME
Salmonella typhimurium [13] = test: Mutagenicity in Salmonella typhimurium in presence of liver S9 fraction by Ames test; type: toxicity, organism-based; conditions: salmonella enterica subsp. enterica serovar typhimurium
Salmonella typhimurium [14] = test: Mutagenicity in Salmonella typhimurium in absence of liver S9 fraction by Ames test; type: toxicity, organism-based; conditions: salmonella enterica subsp. enterica serovar typhimurium
[15] = molecular target: Sodium channel protein type 5 subunit alpha (Homo sapiens, UniProt Q14524); test: Inhibition of Nav1.5 (unknown origin) by patch clamp assay
[16] = molecular target: Sodium channel protein type 2 subunit alpha (Homo sapiens, UniProt Q99250); test: Inhibition of Nav1.2 (unknown origin) by patch clamp assay
[17] = Chemical stability at 80 degC; type: physicochemical
[18] = Solubility in water at pH 1 to 9; type: physicochemical

Cathepsin D, sequence (P07339 65-162 limits assumed): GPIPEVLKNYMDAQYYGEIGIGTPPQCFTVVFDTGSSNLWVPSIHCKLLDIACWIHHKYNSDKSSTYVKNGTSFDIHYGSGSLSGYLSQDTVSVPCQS
Cathepsin D, sequence (P07339 169-412 limits assumed): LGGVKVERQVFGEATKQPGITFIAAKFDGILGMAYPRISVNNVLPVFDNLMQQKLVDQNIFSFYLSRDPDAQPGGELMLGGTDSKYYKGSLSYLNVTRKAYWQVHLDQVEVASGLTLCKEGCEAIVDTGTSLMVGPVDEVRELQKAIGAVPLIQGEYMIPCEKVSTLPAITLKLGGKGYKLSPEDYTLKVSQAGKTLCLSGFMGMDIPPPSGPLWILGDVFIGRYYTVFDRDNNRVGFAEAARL
Cytochrome P450 3A4, sequence (P08684 whole entry): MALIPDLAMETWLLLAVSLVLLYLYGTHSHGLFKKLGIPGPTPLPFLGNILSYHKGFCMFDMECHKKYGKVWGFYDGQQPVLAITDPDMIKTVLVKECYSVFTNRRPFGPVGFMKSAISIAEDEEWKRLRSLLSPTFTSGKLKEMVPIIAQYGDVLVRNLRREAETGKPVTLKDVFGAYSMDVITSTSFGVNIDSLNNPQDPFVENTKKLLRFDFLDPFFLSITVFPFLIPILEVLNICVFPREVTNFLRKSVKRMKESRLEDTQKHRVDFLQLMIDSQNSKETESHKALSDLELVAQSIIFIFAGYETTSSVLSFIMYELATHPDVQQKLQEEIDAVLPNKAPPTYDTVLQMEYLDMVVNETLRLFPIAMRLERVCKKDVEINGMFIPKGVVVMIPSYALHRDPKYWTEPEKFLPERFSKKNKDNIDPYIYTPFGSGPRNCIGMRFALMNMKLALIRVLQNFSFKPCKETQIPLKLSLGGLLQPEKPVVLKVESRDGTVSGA
Beta-secretase 1, sequence (P56817 whole entry): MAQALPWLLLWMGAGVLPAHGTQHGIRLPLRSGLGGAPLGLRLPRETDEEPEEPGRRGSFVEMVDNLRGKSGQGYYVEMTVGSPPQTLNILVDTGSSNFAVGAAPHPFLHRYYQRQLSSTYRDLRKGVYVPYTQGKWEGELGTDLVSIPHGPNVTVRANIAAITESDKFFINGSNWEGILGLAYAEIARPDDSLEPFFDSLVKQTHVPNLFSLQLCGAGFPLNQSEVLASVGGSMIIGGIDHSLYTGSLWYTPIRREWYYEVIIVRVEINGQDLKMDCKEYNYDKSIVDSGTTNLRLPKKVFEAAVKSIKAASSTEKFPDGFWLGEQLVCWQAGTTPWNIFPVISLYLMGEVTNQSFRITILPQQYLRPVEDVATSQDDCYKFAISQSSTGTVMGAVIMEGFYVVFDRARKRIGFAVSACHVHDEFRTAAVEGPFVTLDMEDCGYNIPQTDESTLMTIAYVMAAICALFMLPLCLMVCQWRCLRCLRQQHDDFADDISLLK
Pepsin A, sequence (P0DJD9 whole entry): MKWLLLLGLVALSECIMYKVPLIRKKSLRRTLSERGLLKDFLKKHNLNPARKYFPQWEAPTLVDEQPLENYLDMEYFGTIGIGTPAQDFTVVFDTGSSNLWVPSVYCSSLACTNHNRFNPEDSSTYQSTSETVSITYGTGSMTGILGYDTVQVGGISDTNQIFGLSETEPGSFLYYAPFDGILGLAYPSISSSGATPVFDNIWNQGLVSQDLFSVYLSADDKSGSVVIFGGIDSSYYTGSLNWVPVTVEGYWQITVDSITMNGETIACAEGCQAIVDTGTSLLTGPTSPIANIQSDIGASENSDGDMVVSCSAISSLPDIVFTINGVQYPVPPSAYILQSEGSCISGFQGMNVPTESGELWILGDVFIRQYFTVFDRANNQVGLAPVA
Cytochrome P450 2D6, sequence (P10635 whole entry): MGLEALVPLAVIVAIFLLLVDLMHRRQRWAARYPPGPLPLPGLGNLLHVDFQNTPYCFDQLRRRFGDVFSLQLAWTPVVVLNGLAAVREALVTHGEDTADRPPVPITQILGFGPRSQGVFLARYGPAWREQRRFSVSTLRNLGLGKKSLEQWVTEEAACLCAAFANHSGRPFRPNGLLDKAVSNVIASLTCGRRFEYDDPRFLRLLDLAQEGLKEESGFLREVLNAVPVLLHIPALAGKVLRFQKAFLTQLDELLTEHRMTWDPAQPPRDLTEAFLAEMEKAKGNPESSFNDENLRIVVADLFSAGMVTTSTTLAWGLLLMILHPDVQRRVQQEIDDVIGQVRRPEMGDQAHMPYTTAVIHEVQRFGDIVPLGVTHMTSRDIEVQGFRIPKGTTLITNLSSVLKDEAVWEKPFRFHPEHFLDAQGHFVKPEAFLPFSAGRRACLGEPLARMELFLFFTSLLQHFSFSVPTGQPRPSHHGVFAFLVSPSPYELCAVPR
Sodium channel protein type 2 subunit alpha, sequence (Q99250 whole entry): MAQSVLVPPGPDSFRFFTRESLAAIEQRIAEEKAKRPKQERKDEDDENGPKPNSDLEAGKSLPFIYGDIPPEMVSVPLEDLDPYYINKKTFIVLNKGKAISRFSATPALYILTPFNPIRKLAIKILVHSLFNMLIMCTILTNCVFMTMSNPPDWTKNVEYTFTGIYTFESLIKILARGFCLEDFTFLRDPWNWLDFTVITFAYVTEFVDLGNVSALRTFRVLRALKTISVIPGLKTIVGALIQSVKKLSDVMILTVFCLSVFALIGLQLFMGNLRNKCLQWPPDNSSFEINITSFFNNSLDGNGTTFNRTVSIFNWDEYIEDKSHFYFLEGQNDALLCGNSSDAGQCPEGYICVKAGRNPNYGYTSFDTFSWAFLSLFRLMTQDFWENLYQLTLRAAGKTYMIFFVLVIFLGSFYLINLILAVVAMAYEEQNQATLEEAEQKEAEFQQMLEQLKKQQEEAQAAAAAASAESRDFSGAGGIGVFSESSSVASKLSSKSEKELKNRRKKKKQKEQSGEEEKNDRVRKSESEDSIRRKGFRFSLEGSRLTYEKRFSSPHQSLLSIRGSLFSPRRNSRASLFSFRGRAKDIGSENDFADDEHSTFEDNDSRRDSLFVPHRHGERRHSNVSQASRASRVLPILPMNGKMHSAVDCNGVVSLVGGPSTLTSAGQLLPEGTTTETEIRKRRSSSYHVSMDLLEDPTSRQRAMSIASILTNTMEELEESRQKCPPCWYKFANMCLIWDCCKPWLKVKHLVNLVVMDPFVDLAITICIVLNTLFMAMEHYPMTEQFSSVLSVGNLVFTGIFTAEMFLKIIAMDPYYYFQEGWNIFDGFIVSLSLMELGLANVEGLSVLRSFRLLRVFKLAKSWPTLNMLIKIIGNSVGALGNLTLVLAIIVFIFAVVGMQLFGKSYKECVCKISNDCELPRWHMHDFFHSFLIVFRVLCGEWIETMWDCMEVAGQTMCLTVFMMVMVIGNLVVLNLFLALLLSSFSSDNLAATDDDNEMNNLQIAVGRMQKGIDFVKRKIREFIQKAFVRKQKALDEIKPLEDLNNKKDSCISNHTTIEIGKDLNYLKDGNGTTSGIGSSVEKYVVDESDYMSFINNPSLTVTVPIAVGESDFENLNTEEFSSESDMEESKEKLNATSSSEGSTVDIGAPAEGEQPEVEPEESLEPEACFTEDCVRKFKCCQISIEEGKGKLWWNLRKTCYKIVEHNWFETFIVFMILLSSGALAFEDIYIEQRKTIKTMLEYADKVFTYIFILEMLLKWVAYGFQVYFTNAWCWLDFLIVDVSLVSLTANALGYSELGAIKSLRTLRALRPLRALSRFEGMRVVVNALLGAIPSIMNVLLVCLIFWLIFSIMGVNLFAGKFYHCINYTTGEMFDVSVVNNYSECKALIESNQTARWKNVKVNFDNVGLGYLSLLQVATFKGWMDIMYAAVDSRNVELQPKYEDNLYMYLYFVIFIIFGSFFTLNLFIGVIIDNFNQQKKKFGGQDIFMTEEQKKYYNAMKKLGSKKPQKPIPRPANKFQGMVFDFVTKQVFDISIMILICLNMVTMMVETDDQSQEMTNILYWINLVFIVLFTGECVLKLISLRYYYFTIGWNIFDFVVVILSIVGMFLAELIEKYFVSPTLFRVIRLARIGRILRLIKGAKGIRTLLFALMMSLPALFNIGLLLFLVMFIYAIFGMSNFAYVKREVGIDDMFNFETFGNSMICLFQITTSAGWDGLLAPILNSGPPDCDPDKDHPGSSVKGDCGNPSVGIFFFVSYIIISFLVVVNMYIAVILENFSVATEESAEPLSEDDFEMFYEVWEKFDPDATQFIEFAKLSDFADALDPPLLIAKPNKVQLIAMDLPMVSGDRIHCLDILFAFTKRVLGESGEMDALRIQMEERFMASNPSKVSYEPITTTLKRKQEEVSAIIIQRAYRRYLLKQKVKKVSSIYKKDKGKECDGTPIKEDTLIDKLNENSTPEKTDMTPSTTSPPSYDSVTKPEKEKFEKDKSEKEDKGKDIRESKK
Cytochrome P450 2C9, sequence (P11712 whole entry): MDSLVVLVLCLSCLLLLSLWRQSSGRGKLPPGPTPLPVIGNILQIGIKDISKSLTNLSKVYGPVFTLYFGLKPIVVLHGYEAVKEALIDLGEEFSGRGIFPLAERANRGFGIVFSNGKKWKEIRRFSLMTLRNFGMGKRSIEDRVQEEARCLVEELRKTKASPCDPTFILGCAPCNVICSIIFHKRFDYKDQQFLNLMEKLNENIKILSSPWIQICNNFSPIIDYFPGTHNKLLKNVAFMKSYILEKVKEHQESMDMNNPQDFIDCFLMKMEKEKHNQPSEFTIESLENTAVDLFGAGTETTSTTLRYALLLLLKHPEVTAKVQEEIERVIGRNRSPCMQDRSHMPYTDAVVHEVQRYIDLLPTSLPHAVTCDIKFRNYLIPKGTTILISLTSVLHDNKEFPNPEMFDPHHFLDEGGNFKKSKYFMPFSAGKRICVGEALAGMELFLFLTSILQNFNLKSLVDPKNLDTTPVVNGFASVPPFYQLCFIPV

CCOC[C@@H](CC(C)C)NC(=O)[C@@H]1CNC[C@H](C(=O)N(c2ccc(C(C)C)cn2)C2CC2)[C@@H]1O.O=C(O)CCC(=O)O
Activity (Rattus norvegicus [1]): 42 mmHg
Activity (Rattus norvegicus [2]): 52 mmHg
Activity (Rattus norvegicus [3]): 63 mmHg
Activity (Rattus norvegicus [4]): 66 mmHg
bioavailability [5]: 61%
clearance [6]: 40 mL/min/kg
Vd [7]: 4 L/kg
half-life [8]: 6.8 h
Cmax/dose (Rattus norvegicus [9]): 136 nM/mg/kg
AUC/dose (Rattus norvegicus [10]): 552 nM·h/mg/kg
Activity (Rattus norvegicus [11]): 33 mmHg

CCOC[C@@H](CC(C)C)NC(=O)[C@@H]1CNC[C@H](C(=O)N(c2ccc(C(C)C)cn2)C2CC2)[C@@H]1O
logD [12]: 0.93
IC50 (Pepsin A): > 30 µM
IC50 (Gastricsin): > 30 µM
IC50 (Cathepsin D): > 30 µM
IC50 (Cathepsin E): > 30 µM
IC50 (Beta-secretase 1): > 30 µM
IC50 (Beta-secretase 2): > 30 µM
IC50 (Cytochrome P450 3A4): > 30 µM
IC50 (Cytochrome P450 2C9): > 30 µM
IC50 (Cytochrome P450 2D6): > 30 µM
Activity (Salmonella typhimurium [13]): Non-toxic
Activity (Salmonella typhimurium [14]): Non-toxic
IC50 [15]: > 30 µM
IC50 [16]: > 30 µM
Stability [17]: 3 days
solubility [18]: > 10000 µg/mL
